Assays:
CAL-72 (Osteosarcoma) = experiment: Bliss excess, mean over the matrix (fraction); higher = more synergy
In short: (§1)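 Cell lines grown in DMEM/F12 or RPMI with 10% FBS were plated in 1536-well plates and held 24 hours at 37°C, 5% CO2 before 72 hours of exposure to two-drug dose matrices, with DMSO typically at 0.2%. CellTiter-Glo 2.0 luminescence gave viability, which was converted to inhibition. Vehicle wells were set to 0 and blank wells to 1. Combination Emax is the second-highest inhibition in the matrix, and Bliss excess is the observed combination effect minus the expected EA + EB − EA·EB, where EA and EB are the single-agent effects.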

[1] = system: ALL-PO (B-Lymphoblastic Leukemia); experiment: as above
In short: as §1

A673 (Ewing's Sarcoma) = experiment: as above
In short: as §1

[2] = system: SNU-16 (Gastric Carcinoma); experiment: as above
In short: as §1

[3] = system: SW1710 (Bladder Carcinoma); experiment: as above
In short: as §1

[4] = system: Detroit562 (Head and Neck Carcinoma); experiment: as above
In short: as §1

KS-1 (Glioblastoma) = experiment: as above
In short: as §1

[5] = system: BE-13 (T-Lymphoblastic Leukemia); experiment: as above
In short: as §1

[6] = system: OE21 (Esophageal Squamous Cell Carcinoma); experiment: as above
In short: as §1

[7] = system: HuCCT1 (Biliary Tract Carcinoma); experiment: as above
In short: as §1

EW-11 (Ewing's Sarcoma) [8] = experiment: as above
In short: as §1

[9] = system: NCI-H524 (Small Cell Lung Carcinoma); experiment: as above
In short: as §1

[10] = system: SNU-449 (Hepatocellular Carcinoma); experiment: as above
In short: as §1

[11] = system: HuH-7 (Hepatocellular Carcinoma); experiment: as above
In short: as §1

[12] = system: Hs-746T (Gastric Carcinoma); experiment: as above
In short: as §1

[13] = system: WSU-NHL (B-Cell Non-Hodgkin's Lymphoma); experiment: as above
In short: as §1

[14] = system: Detroit562 (Head and Neck Carcinoma); experiment: combination Emax (second highest fraction inhibited in the dose matrix, 72 h); higher = more inhibition; extreme values may be limits of the assay
In short: as §1

EW-11 (Ewing's Sarcoma) [15] = experiment: as above
In short: as §1

NCI-H2052 (Mesothelioma) = experiment: as above
In short: as §1

MPP-89 (Mesothelioma) = experiment: as above
In short: as §1
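For Bliss excess, mean over the matrix in this document: after 72 h of two-drug dosing.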

Structure (SMILES) | Bliss excess (CAL-72 (Osteosarcoma)) | Bliss excess [1] | Bliss excess (A673 (Ewing's Sarcoma)) | Bliss excess [2] | Bliss excess [3] | Bliss excess [4] | Bliss excess (KS-1 (Glioblastoma)) | Bliss excess [5] | Bliss excess [6] | Bliss excess [7] | Bliss excess (EW-11 (Ewing's Sarcoma) [8]) | Bliss excess [9] | Bliss excess [10] | Bliss excess [11] | Bliss excess [12] | Bliss excess [13] | combination Emax [14] | combination Emax (EW-11 (Ewing's Sarcoma) [15]) | combination Emax (NCI-H2052 (Mesothelioma)) | combination Emax (MPP-89 (Mesothelioma))
Cc1cc2ncnn2cc1Nc1ncc2c(n1)n(C1CCOCC1)c(=O)n2C [AZD7648] + CCN(CCO)CCCOc1ccc2c(Nc3cc(CC(=O)Nc4cccc(F)c4)[nH]n3)ncnc2c1 [AZD2811] (first compound max 10 µM, 7x7, partner max 1 µM) | 0.0448 | 0.0236 | -0.0672 | 0.0793 | 0.0167 | -0.0142 | -0.0405 | -0.066 | 0.0379 | 0.0401 | -0.0298 | -0.0043 | 0.0117 | -0.0065 | -0.0291 | -0.0635 | 0.829 | 0.507 | 0.382 | 0.258
COc1cc2c(cc1OCCCCCOc1cc3c(cc1OC)C(=O)N1C=C(C)C[C@H]1C=N3)N=C[C@@H]1CC(C)=CN1C2=O [SG3199] + O=C(c1cc(Cc2n[nH]c(=O)c3ccccc23)ccc1F)N1CCN(C(=O)C2CC2)CC1 [Olaparib] (first compound max 0.001 µM, 7x7, partner max 10 µM) | -0.0565 | -0.0276 | -0.0556 | -0.0598 | -0.0334 | -0.0252 | -0.0482 | -0.0469 | -0.0537 | -0.0309 | -0.051 | -0.0181 | -0.0647 | -0.0363 | -0.0292 | -0.0156 | 0.175 | 0.582 | 0.0807 | 0.0885
Cc1cc2ncnn2cc1Nc1ncc2c(n1)n(C1CCOCC1)c(=O)n2C [AZD7648] + O=C(c1cc(Cc2n[nH]c(=O)c3ccccc23)ccc1F)N1CCN(C(=O)C2CC2)CC1 [Olaparib] (first compound max 10 µM, 7x7, partner max 10 µM) | -0.0093 | -0.0202 | -0.015 | -0.0301 | -0.0377 | -0.0108 | -0.0355 | -0.0079 | -0.088 | -0.028 | -0.0826 | -0.0698 | -0.0525 | -0.0389 | -0.0732 | -0.057 | 0.376 | 0.582 | 0.308 | 0.28
Cc1nc(Nc2ncc(C(=O)Nc3c(C)cccc3Cl)s2)cc(N2CCN(CCO)CC2)n1 [Dasatinib] + CC(=O)Nc1cccc(-n2c(=O)n(C3CC3)c(=O)c3c(Nc4ccc(I)cc4F)n(C)c(=O)c(C)c32)c1 [Trametinib] (first compound max 2 µM, 7x7, partner max 1 µM) | -0.0409 | 0.0238 | -0.075 | -0.0261 | -0.0546 | -0.0007 | -0.0429 | 0.123 | -0.0561 | -0.0272 | -0.0404 | -0.0362 | -0.0631 | 0.0586 | -0.0943 | 0.0024 | 0.862 | 0.157 | 0.558 | 0.851
C[C@@H](c1ccc2nccn2c1)n1nnc2ncc(-c3cnn(C)c3)nc21 [Savolitinib] + CC1(C)CCC(CN2CCN(c3ccc(C(=O)NS(=O)(=O)c4ccc(NCC5CCOCC5)c([N+](=O)[O-])c4)c(Oc4cnc5[nH]ccc5c4)c3)CC2)=C(c2ccc(Cl)cc2)C1 [Venetoclax] (first compound max 1 µM, 7x7, partner max 1 µM) | -0.02 | 0.035 | -0.0673 | -0.0188 | -0.0561 | -0.0322 | -0.0476 | -0.0307 | -0.0443 | -0.0525 | -0.0096 | -0.0066 | -0.0358 | -0.0573 | -0.0105 | -0.0193 | 0.0649 | 0.213 | 0.121 | 0.261
CN(CCO)CC[C@H](CSc1ccccc1)Nc1ccc(S(=O)(=O)NC(=O)c2ccc(N3CCC([C@@H](O)c4ccccc4-c4ccc(Cl)cc4)CC3)cc2)cc1S(=O)(=O)C(F)(F)F [AZD4320] + CCN(CCO)CCCOc1ccc2c(Nc3cc(CC(=O)Nc4cccc(F)c4)[nH]n3)ncnc2c1 [AZD2811] (first compound max 1 µM, 7x7, partner max 1 µM) | 0.0528 | -0.009 | 0.0819 | 0.0638 | -0.0291 | 0.0043 | 0.0261 | 0.0663 | -0.0212 | -0.0283 | -0.0439 | -0.0163 | -0.0649 | -0.0268 | -0.0095 | -0.0295 | 0.825 | 0.865 | 0.128 | 0.526

Source: the supplement of paper PMC11061612
